Molecules are shown by their SMILES.

For the assay, the target named is Mcl-1 protein (UniProtKB Q07820) (Homo sapiens (Human), UniProt Q07820). The assay can be described thus: Inhibition of Mcl-1 by the fluorescence polarisation assay (Example A, Method A). To be noted: fluorescence polarization assay. The assay is classed as binding. Summed up: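 Protein (5 nM) and fluorescein-tagged peptide tracer (1 nM) incubated with 11-point compound series for 2 h at room temperature in HEPES/NaCl/Tween 20 buffer, pH 7.4, 5% DMSO. Displacement read as decrease in polarisation; IC50 fitted by 4-parameter logistic, converted to Ki (cKi or eKi).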
Mcl-1 protein, sequence (Q07820 whole entry): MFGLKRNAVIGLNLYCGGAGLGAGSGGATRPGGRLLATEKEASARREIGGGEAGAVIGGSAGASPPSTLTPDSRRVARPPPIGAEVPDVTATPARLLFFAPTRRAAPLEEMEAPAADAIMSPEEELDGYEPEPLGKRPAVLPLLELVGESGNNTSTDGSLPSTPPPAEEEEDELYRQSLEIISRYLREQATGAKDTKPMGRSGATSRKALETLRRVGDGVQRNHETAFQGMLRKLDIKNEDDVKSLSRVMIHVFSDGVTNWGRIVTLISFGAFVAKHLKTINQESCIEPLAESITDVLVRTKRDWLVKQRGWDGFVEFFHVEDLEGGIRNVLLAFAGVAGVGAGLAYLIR
By Ki is commonly meant the equilibrium dissociation constant of an inhibitor or competing ligand from its target. In the case of `CCC1=C(C)[C@]2(CC[C@@](Nc3cccc(Cl)c3)(C(=O)O)CC2)c2ccccc21` [Example 206, (1s,4s)-4-(3-chloroanilino)-3′-ethyl-2′-methylspiro[cyclohexane-1,1′-indene]-4-carboxylic acid], the Ki is 4.68 µM.

Regarding `O=C(O)[C@]1(Nc2cccc(Cl)c2)CC[C@]2(CC1)C(c1cccc(O)c1)=Cc1ccccc12` [Example 304, (1s,4s)-4-(3-chloroanilino)-2′-(3-hydroxyphenyl)spiro[cyclohexane-1,1′-indene]-4-carboxylic acid], the Ki is 1.74 µM.

Take `O=C(O)[C@]1(Nc2cccc(Cl)c2)CC[C@@]2(CC1)c1ccccc1CC2c1ccccc1` (single isomer, unassigned) [Example 328, (1r,4r)-4-(3-chloroanilino)-2′-phenyl-2′,3′-dihydrospiro[cyclohexane-1,1′-indene]-4-carboxylic acid]: the Ki was determined as 0.677 µM.

In the case of `O=C(O)[C@]1(Nc2cccc(Br)c2)CC[C@@]2(CC1)c1ccccc1C[C@@H]2c1ccccc1` [Example 211, (1r,2′R,4R)-4-(3-bromoanilino)-2′-phenyl-2′,3′-dihydrospiro[cyclohexane-1,1′-indene]-4-carboxylic acid], the inhibition constant Ki is 11 µM.

Take `O=C(O)[C@]1(Nc2cccc(Cl)c2)CC[C@@]2(CC1)c1ccccc1CC2CCCOc1cc(F)cc(Cl)c1` (stereo partly drawn) [Example 430, (1r,4r)-4-(3-chloroanilino)-2′-[3-(3-chloro-5-fluorophenoxy)propyl]-2′,3′-dihydrospiro[cyclohexane-1,1′-indene]-4-carboxylic acid]: the Ki amounted to 0.206 µM.

With `O=C(O)C1(Nc2cccc(Br)c2)CCC2(CC1)c1ccccc1CC2CCCc1ccccc1` (single isomer, unassigned) [Example 150, (1r,4r)-4-(3-bromoanilino)-2′-(3-phenylpropyl)-2′,3′-dihydrospiro[cyclohexane-1,1′-indene]-4-carboxylic acid], the Ki is 0.226 µM.

In the case of `COc1cccc([C@H]2Cc3ccccc3[C@]23CC[C@@](Nc2cccc(Br)c2)(C(=O)O)CC3)c1` [Example 220, (1r,2′R,4R)-4-(3-bromoanilino)-2′-(3-methoxyphenyl)-2′,3′-dihydrospiro[cyclohexane-1,1′-indene]-4-carboxylic acid], the Ki came out at 7.23 µM.

As to `O=C(O)C1(Nc2cccc(Cl)c2)CCC2(CC1)c1ccccc1CC2CCCOc1ncnc2c1CCCC2` (stereo not drawn) [Example 460, (1r,4r)-4-(3-chloroanilino)-2′-{3-[(5,6,7,8-tetrahydroquinazolin-4-yl)oxy]propyl}-2′,3′-dihydrospiro[cyclohexane-1,1′-indene]-4-carboxylic acid], the Ki stood at 0.159 µM.

With `O=C(O)[C@]1(Nc2cccc(Cl)c2)CC[C@@]2(CC1)c1ccccc1CC2CCCOc1n[nH]c2c1CCCC2` (stereo partly drawn) [Example 433, (1r,4r)-4-(3-chloroanilino)-2′-{3-[(4,5,6,7-tetrahydro-1H-indazol-3-yl)oxy]propyl}-2′,3′-dihydrospiro[cyclohexane-1,1′-indene]-4-carboxylic acid], the Ki was 1.75 µM.

Regarding `COc1cccc(Cl)c1C1Cc2ccccc2[C@]12CC[C@@](Nc1cccc(Cl)c1)(C(=O)O)CC2` (mixture of isomers) [Example 283, (1r,4r)-4-(3-chloroanilino)-2′-(2-chloro-6-methoxyphenyl)-2′,3′-dihydrospiro[cyclohexane-1,1′-indene]-4-carboxylic acid], the Ki turned out to be 4.16 µM.

For `O=C(O)[C@]1(Nc2cccc(Br)c2)CC[C@]2(CC1)c1ccccc1CC2CCc1ccccn1` (mixture of isomers) [Example 176, (1s,4s)-4-(3-bromoanilino)-2′-[2-(pyridin-2-yl)ethyl]-2′,3′-dihydrospiro[cyclohexane-1,1′-indene]-4-carboxylic acid], the Ki is 11.8 µM.

Consider `COc1cccc(C2=Cc3ccccc3[C@]23CC[C@@](Nc2cccc(Cl)c2)(C(=O)O)CC3)c1C` [Example 299, (1s,4s)-4-(3-chloroanilino)-2′-(3-methoxy-2-methylphenyl)spiro[cyclohexane-1,1′-indene]-4-carboxylic acid], for which the Ki worked out at 0.41 µM.

Regarding `O=C(O)C1(Nc2cccc(Br)c2)CCC2(CC1)C(=O)N1CCCc3cc(Br)cc2c31` (single isomer, unassigned) [Example 14, 8′-bromo-4-(3-bromoanilino)-2′-oxo-5′,6′-dihydro-2′H,4′H-spiro[cyclohexane-1,1′-pyrrolo[3,2,1-ij]quinoline]-4-carboxylic acid], the Ki turned out to be 5.2 µM.

With `COc1ccc2c(c1)[C@]1(CC[C@@](Nc3cccc(Cl)c3)(C(=O)O)CC1)C(c1cccc(Oc3ccccc3)c1)C2` (single isomer, unassigned) [Example 379, (1r,4r)-4-(3-chloroanilino)-6′-methoxy-2′-(3-phenoxyphenyl)-2′,3′-dihydrospiro[cyclohexane-1,1′-indene]-4-carboxylic acid], the Ki is 3.1 µM.

`O=C(O)[C@]1(Nc2cccc(Cl)c2)CC[C@]2(CC1)C(c1cccc(Oc3ccncc3)c1)=Cc1ccccc12` [Example 377, (1s,4s)-4-(3-chloroanilino)-2′-{3-[(pyridin-4-yl)oxy]phenyl}spiro[cyclohexane-1,1′-indene]-4-carboxylic acid]: the Ki came to 0.0743 µM.

Consider `O=C(O)[C@]1(Nc2cccc(Br)c2)CC[C@@]2(CC1)c1ccccc1CC2CCc1cccc2[nH]ccc12` (stereo partly drawn) [Example 163, (1r,4r)-4-(3-bromoanilino)-2′-[2-(1H-indol-4-yl)ethyl]-2′,3′-dihydrospiro[cyclohexane-1,1′-indene]-4-carboxylic acid], for which the Ki turned out to be 0.679 µM.

`COc1ccc([C@@H]2Cc3ccccc3[C@]23CC[C@@](Nc2cccc(Br)c2)(C(=O)O)CC3)cc1` [Example 217, (1r,2′S,4S)-4-(3-bromoanilino)-2′-(4-methoxyphenyl)-2′,3′-dihydrospiro[cyclohexane-1,1′-indene]-4-carboxylic acid]: the Ki came to 0.484 µM.

For the molecule `Cc1cncnc1OCCCC1=Cc2ccccc2[C@]12CC[C@@](Nc1cccc(Br)c1)(C(=O)O)CC2` [Example 456, (1r,4r)-4-(3-bromoanilino)-2′-{3-[(5-methylpyrimidin-4-yl)oxy]propyl}spiro[cyclohexane-1,1′-indene]-4-carboxylic acid], the Ki worked out at 0.104 µM.

As to `Cc1cc2nccc(OCCCC3Cc4ccccc4[C@]34CC[C@@](Nc3cccc(Cl)c3)(C(=O)O)CC4)c2s1` (stereo partly drawn) [Example 446, (1r,4r)-4-(3-chloroanilino)-2′-{3-[(2-methylthieno[3,2-b]pyridin-7-yl)oxy]propyl}-2′,3′-dihydrospiro[cyclohexane-1,1′-indene]-4-carboxylic acid], the Ki amounted to 0.134 µM.

Regarding `COc1ccc2c(c1)[C@]1(CC[C@@](Nc3cccc(Cl)c3)(C(=O)O)CC1)C1(CCCC1)C2` [Example 89, (1r,4r)-4-(3-chloroanilino)-6′-methoxy-3′H-dispiro[cyclohexane-1,1′-indene-2′,1″-cyclopentane]-4-carboxylic acid], the Ki is 2.12 µM.

`O=C(O)[C@]1(Nc2cncc(Br)c2)CC[C@]2(CC1)C(Br)=Cc1ccccc12` [Example 79, (1s,4s)-2′-bromo-4-[(5-bromopyridin-3-yl)amino]spiro[cyclohexane-1,1′-indene]-4-carboxylic acid]: the Ki is 0.571 µM.

For the molecule `O=C(O)[C@]1(Nc2cccc(Cl)c2)CC[C@]2(CC1)C(c1ccccc1Cl)=Cc1ccccc12` [Example 311, (1s,4s)-4-(3-chloroanilino)-2′-(2-chlorophenyl)spiro[cyclohexane-1,1′-indene]-4-carboxylic acid], the Ki stood at 0.559 µM.

As for `O=C(O)[C@]1(Nc2cccc(Br)c2)CC[C@]2(CC1)c1ccccc1CC2c1ccccc1` (single isomer, unassigned) [Example 210, (1s,4s)-4-(3-bromoanilino)-2′-phenyl-2′,3′-dihydrospiro[cyclohexane-1,1′-indene]-4-carboxylic acid], the Ki was determined as 89 µM.

Take `COc1ccc(N2C(=O)c3ccccc3[C@]23CC[C@@](Nc2cccc(Br)c2)(C(=O)O)CC3)cc1` [Example 33, (1s,4s)-4-(3-bromoanilino)-2′-(4-methoxyphenyl)-3′-oxo-2′,3′-dihydrospiro[cyclohexane-1,1′-isoindole]-4-carboxylic acid]: the Ki stood at 12.1 µM.

For the molecule `O=C(NCc1ccccc1)C1=Cc2ccccc2[C@]12CC[C@@](Nc1cccc(Cl)c1)(C(=O)O)CC2` [Example 180, (1s,4s)-2′-(benzylcarbamoyl)-4-(3-chloroanilino)spiro[cyclohexane-1,1′-indene]-4-carboxylic acid], the Ki was 12.8 µM.

For the molecule `COc1ccc(C2=Cc3ccccc3[C@]23CC[C@](Nc2cccc(Cl)c2)(C(=O)O)CC3)c(C)c1` [Example 228, (1r,4r)-4-(3-chloroanilino)-2′-(4-methoxy-2-methylphenyl)spiro[cyclohexane-1,1′-indene]-4-carboxylic acid], the Ki was found to be 14.7 µM.

Turning to `CCC1=C(C)[C@]2(CC[C@](Nc3cccc(Cl)c3)(C(=O)O)CC2)c2ccccc21` [Example 205, (1r,4r)-4-(3-chloroanilino)-3′-ethyl-2′-methylspiro[cyclohexane-1,1′-indene]-4-carboxylic acid], the Ki stood at 1.71 µM.

Consider `Cc1noc(C)c1C1Cc2ccccc2C12CCC(Nc1cccc(Br)c1)(C(=O)O)CC2` (single isomer, unassigned) [Example 231, 4-(3-bromoanilino)-2′-(3,5-dimethyl-1,2-oxazol-4-yl)-2′,3′-dihydrospiro[cyclohexane-1,1′-indene]-4-carboxylic acid], for which the Ki turned out to be 7.72 µM.

Consider `CCOCCCC1Cc2ccccc2[C@]12CC[C@@](Nc1cccc(Cl)c1)(C(=O)O)CC2` (stereo partly drawn) [Example 156, (1r,4r)-4-(3-chloroanilino)-2′-(3-ethoxypropyl)-2′,3′-dihydrospiro[cyclohexane-1,1′-indene]-4-carboxylic acid], for which the Ki was 0.621 µM.

In the case of `O=C(O)[C@]1(Nc2cccc(Cl)c2)CC[C@]2(CC1)C(COCCc1ccc(F)cc1)=Cc1ccccc12` [Example 413, (1s,4s)-4-(3-chloroanilino)-2′-{[2-(4-fluorophenyl)ethoxy]methyl}spiro[cyclohexane-1,1′-indene]-4-carboxylic acid], the Ki was found to be 0.704 µM.

For the origin of these results see patent US20240150293A1, “SPIROCYCLOHEXANE DERIVATIVES, PHARMACEUTICAL COMPOSITIONS CONTAINING THEM AND THEIR USES AS ANTI-APOPTOTIC INHIBITORS” (LES LABORATOIRES SERVIER, priority 2021, published 2024).
